{"source": "patent US20190015400A1", "about": "“Antifungal Compositions” (priority 2017, published 2019)", "key": {"[1]": {"tested_on": "C. glabrata ATCC 2001 (strain H)", "assay": "MIC and checkerboard assay, azoles + antihistamines", "type": "cell-based, Candida glabrata", "procedure": "Determination of minimum inhibitory concentration (MIC) values. MIC values were recorded for all antifungals and antihistamines in order to determine the concentration range of compounds to be used in the checkerboard assays.\nThe MIC assays were done using the broth microdilution method as described in CLSI document M27-A3 with minor modifications. Yeast cultures were started by picking a colony from a PDA plate stored at 4° C. The colonies were grown in YEPD medium overnight at 35° C. with shaking at 200 rpm. In a 96-well plate compounds were diluted lengthwise along the plate in serial 2-fold dilutions in the RPMI 1640 medium. The yeast cultures were diluted in RPMI 1640 medium to an OD600 within the range of 0.12 and 0.15 (˜1×10^6 cells/mL). The fungal cells were further diluted by taking 25 μL of fungal cells and adding them to 10 mL of RPMI 1640 medium before adding 100 μL to plate (200 μL total volume). The plates were incubated at 35° C. for 48 h. Visual inspection of the wells for no growth was used to determine the MIC. All compounds were tested in duplicate (TABLES 6 and 7).\nCheckerboard assays were done as previously described to determine the fractional inhibitory concentration index (FICI). 2-fold dilutions of the azole drug were made in RPMI 1640 medium lengthwise along the plate. For the antihistamine, 2-fold serial dilutions were made in sterile tubes with RPMI 1640 medium, then aliquoted into the plate. […] The maximal amount was used in the checkerboard assays if complete inhibition was not observed in the MIC assays. Cultures were started by picking a colony from a plate and growing in YEPD medium overnight at 35° C. with shaking at 200 rpm. Cultures were diluted in RPMI 1640 medium to an OD600 between 0.12 and 0.15 (˜1×10^6 cells/mL). Cells were then further diluted by taking 25 μL of cell suspension and adding to 10 mL of RPMI 1640 medium. After the drugs were added to the plate with 100 μL of medium, 100 μL of fungal cells were added. Plates were incubated at 35° C. for 48 h and visual inspection was used to determine wells with no growth. All experiments were carried out in duplicate. The FICI was calculated based on the formula below. The combinational effect of the 2 tested compounds were considered synergistic (SYN) if FICI≤0.5, additive (ADD) if 0.5<FICI≤4, and antagonistic if FICI>4 (TABLES 6-9)."}, "[2]": {"tested_on": "C. albicans ATCC 64124 (strain F) biofilm", "assay": "Biofilm disruption assay (XTT, SMIC99), azoles + compound 2", "type": "cell-based, Candida albicans", "procedure": "In order to investigate the synergistic effect of azoles and our compounds on inhibiting biofilm formation of C. albicans ATCC 64124 (strain F), we performed a biofilm disruption assay in a checkerboard setup and used XTT [2,3-bis(2-methoxy-4-nitro-5-sulfophenyl)-2H-tetrazolium-5-carboxanilide] reduction to examine the metabolic activity of the biofilm. Briefly, C. albicans ATCC 64124 (strain F) was grown overnight in YEPD broth at 35° C. The culture was then diluted to an OD600 of 0.12 (equivalent to 1×10^6 CFU/mL) and 100 μL was placed into each well of a 96-well plate. The cells were incubated at 37° C. for 24 h for growth. The following day, the spent medium containing planktonic cells was aspirated and each wells were carefully washed three times with sterile phosphate buffer saline (PBS). […] The negative control (medium only) and the positive control (biofilm plus medium) wells were also included in the same 96-well plate. The plates were then incubated at 37° C. statically for additional 24 h and then washed with sterile PBS. 100 μL of a XTT (0.5 mg/mL)/menadione (1 μM) solution was added to each well, covered with aluminum foil, and incubated for 2 h at 37° C. Then, 80 μL of the colored supernatant from each well was transferred to a new 96-well plate, and the absorption was read at OD490. The percent metabolic activity of the formed biofilm at various drug concentration combinations was calculated by dividing the metabolic activity of biofilm formed for that well by that of the biofilm formed in the growth control well (in the absence of any drug). For these experiments, the sessile MIC (SMIC99) was determined, which is defined as the drug concentration required to inhibit the metabolic activity of biofilm by 99% compared to the growth control. The assay for each combination was performed in duplicates."}, "[3]": {"tested_on": "C. glabrata ATCC 2001 (strain H) biofilm", "assay": "Biofilm disruption assay (XTT, SMIC90), POS and EBA", "type": "cell-based, Candida glabrata", "procedure": "Biofilm disruption assays. […] Biofilm assays were performed in 96-well plates using XTT [2,3-bis(2-methoxy-4-nitro-5-sulfophenyl)-2H-tetrazolium-5-carboxanilide] to measure the viability of the biofilm as previously described. An overnight culture of yeast was grown at 35° C. in YEPD medium with shaking at 200 rpm. The overnight culture was diluted in RPMI 1640 medium to an OD600 between 0.12 and 0.15 to make a working stock. Working stock was transferred to the 96-well plate in 100 μL aliquots, leaving one column empty for the sterile control. The plates were incubated at 37° C. for 24 h to allow formation of the biofilm. The medium and planktonic cells from the plate were then aspirated. PBS was then used to wash any remaining planktonic cells off of the biofilm wells. 100 μL of PBS was aliquoted into wells and then removed. The wells were washed 3 times with PBS. […] Plates were incubated at 37° C. for 24 h. Finally, the plates were washed 3 times with PBS before adding 100 μL of XTT dye. The XTT was prepared by dissolving XTT at 0.5 mg/mL concentration in sterile PBS. Before adding to a plate, 1 μL of 10 mM menadione in acetone was added to 10 mL of the 0.5 mg/mL solution of XTT. After addition of XTT (containing menadione), the plates were incubated at 3 h at 37° C. in the dark. 80 μL of liquid from each well was transferred to a new plate. Plates were then read with a SpectraMax M5 plate reader (Molecular Devices, Sunnyvale, Calif., USA) for absorbance at 450 nm. For these experiments, we determined the sessile MIC (SMIC90), which is defined as the drug concentration required to inhibit the metabolic activity of biofilm by 90% compared to the growth control. The SMIC90 values were used to calculate the FICI as described above (TABLE 10). The plates used to determine the SMIC90 are provided in FIGS. 91A-H. Each assay was performed in duplicate."}}}
{"smiles": "CC[C@@H]([C@H](C)O)n1ncn(-c2ccc(N3CCN(c4ccc(OC[C@@H]5CO[C@@](Cn6cncn6)(c6ccc(F)cc6F)C5)cc4)CC3)cc2)c1=O", "note": "[POS, posaconazole]", "values": [{"measurement": "MIC", "setting": "[1]; Nakaseomyces glabratus, ATCC2001, drug alone", "result": "> 32", "unit": "µg/mL"}, {"measurement": "MIC in combination", "setting": "[1]; combination POS + EBA, MIC of the labelled drug", "result": 0.5, "unit": "µg/mL"}, {"measurement": "fold decrease in MIC (combination vs alone)", "setting": "[1]; combination POS + EBA, decrease for the labelled drug", "result": 64, "unit": "fold"}, {"measurement": "SMIC alone (μg/mL) Azole", "setting": "[2]; azole alone, sessile cells", "result": ">32", "unit": "µg/mL"}, {"measurement": "SMIC combo (μg/mL) Azole", "setting": "[2]; azole in combination with compound 2", "result": 0.5, "unit": "µg/mL"}, {"measurement": "SMIC90 combo", "setting": "[3]; combination POS + EBA, SMIC90 of the labelled drug", "result": 0.06, "unit": "µg/mL"}, {"measurement": "SMIC90", "setting": "[3]; drug alone", "result": "> 32", "unit": "µg/mL"}]}
